One test has as its target T1, MMP-1 (Homo sapiens, UniProt P03956).
T1 construct: made in house; host or cells: MMP-1-transfected HT-1080 cells (spent media)
T1 sequence (P03956 100-469): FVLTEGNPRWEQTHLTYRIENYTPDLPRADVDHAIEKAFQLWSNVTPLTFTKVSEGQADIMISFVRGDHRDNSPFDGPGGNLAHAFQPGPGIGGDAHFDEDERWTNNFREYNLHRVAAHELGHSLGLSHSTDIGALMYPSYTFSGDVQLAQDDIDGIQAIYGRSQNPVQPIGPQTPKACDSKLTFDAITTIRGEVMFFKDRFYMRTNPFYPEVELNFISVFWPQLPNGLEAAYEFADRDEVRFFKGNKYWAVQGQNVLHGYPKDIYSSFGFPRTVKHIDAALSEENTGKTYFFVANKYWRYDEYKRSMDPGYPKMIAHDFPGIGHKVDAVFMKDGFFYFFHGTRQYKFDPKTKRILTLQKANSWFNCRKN
The test is described as follows: In vitro MMP inhibition, Ki determination (fluorogenic substrate II). As to conditions: read-out: MMP-1 Ki. It counts as biochemical. Here is the method: (§1) Several hydroxamic acids and salts thereof were analyzed in in vitro assays to determine their ability to inhibit the MMP cleavage of peptide substrates. […] and IC50 constants were calculated from the assayed hydroxamic acid-MMP interactions.
(§2) Human recombinant MMP-1, MMP-2, MMP-9, MMP-13, and MMP-14 were used in this assay. All enzymes were prepared in Assignee's laboratories following usual laboratory procedures. Protocols for the preparation and use of these enzymes are available in the scientific literature. See, e.g., Enzyme Nomenclature (Academic Press, San Diego, Calif., 1992) (and the citations therein). See also, Freije et al., “Molecular cloning and expression of collagenase-3, a novel human matrix metalloproteinase produced by breast carcinomas,” J Biol. Chem., 269(24), 16766-16773 (1994).
The MMP-1 proenzyme was purified from the spent media of MMP-1-transfected HT-1080 cells provided by Dr. Harold Welgus of Washington University (St. Louis, Mo.). The protein was purified on a zinc chelating column.
(§3) All MMPs were activated using 4-aminophenylmercuric acetate (“APMA”, Sigma Chemical, St. Louis, Mo.) or trypsin. MMP-9 also was activated using human recombinant MMP-3 (purified in Assignee's laboratory following standard cloning and purification techniques).
(§4) Two fluorogenic, methoxycoumarin-containing polypeptide substrates were used in the MMP inhibition assays: [drawing 427] Here, “Dpa” is 3-(2,4-dinitrophenyl)-L-2,3-diaminopropionyl group, and “MCA” is 7-methoxycoumarin-4-yl acetyl. Substrate (I) was purchased from Baychem (Redwood City, Calif.), and substrate II was prepared Assignee's laboratory. Substrate I was used in the IC50 determination assays, while substrate II was used in the Ki determination assays. In the absence of MMP inhibitory activity, either substrate is cleaved at the Gly-Leu peptide bond. This cleavage separates the highly fluorogenic peptide from the 2,4-dinitrophenyl quencher, thus resulting in increase of fluorescent intensity.
(§5) The stock solutions of the assayed hydroxamic acids (or salts thereof) were prepared in 1% dimethyl sulfoxide (DMSO). These stock solutions were diluted in Buffer A (100 mM Tris-HCl, 100 mM NaCl, 10 mM CaCl2, 0.05% polyoxyethylene 23 lauryl ether, pH 7.5) to obtain solutions with different hydroxamic acid concentrations, i.e., assay solutions with different concentrations of the assayed MMP inhibitory compound. The experiment controls contained the same amount of Buffer A/DMSO as the assayed sample, but contained no hydroxamic acid (or salt thereof).
The assays from which the Ki determinations were made were performed as follows. The assayed hydroxamic acid samples were incubated in separate wells of untreated white polystyrene plates (Nunc Nalgene International, Rochester, N.Y.), and analyzed on a Tecan SpectraFlour Plus plate reader. The excitation wavelength was 330 nm, and the emission wavelength—420 nm. All samples (assayed hydroxamic acids and controls) were incubated in separate plate wells at room temperature for 1 hr in the presence of 4 μM of MMP substrate (II). In the absence of MMP inhibitory activity, substrate II was cleaved at the Gly-Leu bond resulting in an increase of relative fluorescence. Inhibition was observed as a reduced rate of this increase in relative fluorescence. The various hydroxamic acids were analyzed using a single low enzyme concentration with a single substrate concentration fixed at or below the Km. This protocol is a modification of method by Knight et al., FEBS Lett., 296(3), 263-266 (1992). Apparent inhibitory constants were determined by non-linear regression of reaction velocity as a function of inhibitor and enzyme concentration using Morrison's equation, as described by Kuzmic, Anal. Biochem. 286, 45-50 (2000). […] Since the substrate concentration was chosen to be at or below the Km, the apparent Ki's from this analysis were reported as Ki's without correction for the influence of substrate.

Another test addresses T2, MMP-13 (Homo sapiens, UniProt P45452).
T2 construct: made in house; host or cells: baculovirus / insect cells
The test is described as follows: In vitro MMP inhibition, IC50 determination (fluorogenic substrate I). It counts as biochemical. The following applies: values in parenthesis; 4 μM substrate I; room temperature. As to the method: as §1, §2
The MMP-13 was obtained as a proenzyme from a full-length cDNA clone using baculovirus, as described by V. A. Luckow, “Insect Cell Expression Technology,” Protein Engineering: Principles and Practice, pp. 183-218 (edited by J. L. Cleland et al., Wiley-Liss, Inc., 1996). The expressed proenzyme was first purified over a heparin agarose column, and then over a chelating zinc chloride column. The proenzyme was then activated by APMA for use in the assay. Further details on baculovirus expression systems may be found in, for example, Luckow et al., J. Virol., 67, 4566-79 (1993). See also, O'Reilly et al, Baculovirus Expression Vectors: A Laboratory Manual (W.H. Freeman and Co., New York, N.Y., 1992). See also, King et al., The Baculovirus Expression System: A Laboratory Guide (Chapman & Hall, London, England, 1992).
as §3, §4, §5
The assays from which the IC50 determinations were made were performed as follows. The MMPs were activated with either trypsin or APMA (4-aminophenylmercuric acetate, Sigma Chemical, St. Louis, Mo.). The assayed hydroxamic acid samples were incubated in Microfluor™ White Plates (Dynatech, Chantilly, Va.) and analyzed on a Perkin Elmer L550 plate reader (Norwalk, Conn.). The excitation wavelength was 328 nm, and the emission wavelength—415 nm. All samples (assayed hydroxamic acids and controls) were incubated in separate plates at room temperature in the presence of 4 μM of MMP substrate (I). As stated in the previous paragraph, samples containing varying concentrations of the same assayed hydroxamic acid were prepared. Inhibition was measured as a reduction in fluorescent intensity as a function of MMP inhibitor concentration. […]

The mark [1] stands for this setting: human recombinant enzyme, 4 μM substrate II, room temperature, 1 hr.

By Ki is commonly meant the equilibrium dissociation constant of an inhibitor or competing ligand from its target. As usually defined, the IC50 is the concentration that inhibits the measured activity by half.

Structures can show the parent of a compound that is named as a salt. Where two headings read alike, the source gives them in different places. Where only a bound is given, the exact number is not on record here.

Turning to `CCCCCc1ccc(N2CCN(S(=O)(=O)C3(C(=O)NO)CCN(CCOC)CC3)CC2)cc1` [Example 6, N-Hydroxy-1-(2-methoxyethyl)-4-{[4-(4-pentylphenyl)piperazin-1-yl]sulfonyl}piperidine-4-carboxamide Dihydrochloride], the Ki on MMP-1 (setting [1]) is > 10 µM. Moreover, the IC50 on MMP-13 was determined as 0.0001 µM.
For `CCCCc1ccc(N2CCN(S(=O)(=O)C3(C(=O)NO)CCN(CCOC)CC3)CC2)cc1` [Example 5, 4-{[4-(4-butylphenyl)piperazin-1-yl]sulfonyl}-N-hydroxy-1-(2-methoxyethyl)piperidine-4-carboxamide Dihydrochloride], in that order: > 10 µM and < 0.0001 µM.
`O=C(NO)C1(S(=O)(=O)N2CCN(c3ccc(OCC4CC4)c(F)c3)CC2)CCN(C2CC2)CC1` [Example 10, 1-cyclopropyl-4-[[4-[4-(cyclopropylmethoxy)-3-fluorophenyl]-1-piperazinyl]sulfonyl]-N-hydroxy-4-piperidinecarboxamide, dihydrochloride]: on MMP-1 (setting [1]), the Ki is > 10 µM. Further, at MMP-13, the IC50 turned out to be 0.0013 µM.
For `CCCCOc1ccc(N2CCN(S(=O)(=O)C3(C(=O)NO)CCN(CCOC)CC3)CC2)cc1F` [Example 11, 4-[[4-(4-butoxy-3-fluorophenyl)-1-piperazinyl]sulfonyl]-N-hydroxy-1-(2-methoxyethyl)-4-piperidinecarboxamide, Dihydrochloride], at MMP-1 (setting [1]), the Ki is > 10 µM. The IC50 at MMP-13 was 0.0008 µM.
`CCCCCc1ccc(C2CCN(S(=O)(=O)C3(C(=O)NO)CCN(CCOC)CC3)CC2)cc1` [Example 15, N-hydroxy-1-(2-methoxyethyl)-4-{[4-(4-pentylpheyl)piperidin-1-yl]sulfonyl}piperidine-4-carboxamide Hydrochloride]: the inhibition constant Ki at MMP-1 (setting [1]) was > 10 µM. Further, the IC50 at MMP-13 worked out at 0.0001 µM.
On to `COCCOc1ccc(N2CCN(S(=O)(=O)C3(C(=O)NO)CCOCC3)CC2)cc1` [Example 14, N-hydroxy-4-({4-[4-(2-methoxyethoxy)phenyl]piperazin-1-yl}sulfonyl)tetrahydro-2H-pyran-4-carboxamide Hydrochloride], for which the Ki at MMP-1 (setting [1]) is > 10 µM.
As to `O=C(c1cccnc1)N1CCC(C(=O)NO)(S(=O)(=O)N2CCN(c3ccc(OCCCC(F)(F)F)cc3)CC2)CC1` [Example 122], the Ki at MMP-1 (value not in parenthesis) is > 10 µM.
Turning to `CCCCOc1ccc(N2CCN(S(=O)(=O)C3(C(=O)NO)CCN(c4ccc(C)cn4)CC3)CC2)cc1` [Example 125], the Ki on MMP-1 (value not in parenthesis) was > 10 µM.
Turning to `CCCCOc1ccc(N2CCN(S(=O)(=O)C3(C(=O)NO)CCN(c4ccc(OC)nc4)CC3)CC2)cc1` [Example 142], on MMP-1 (value not in parenthesis), the Ki is > 10 µM.

These data come from patent publication US20050209278A1, “Piperidinyl- and piperazinyl-sulfonylmethyl hydroxamic acids and their use as protease inhibitors” (priority 2002, published 2005).
